# From patent US9790201B2, “Piperidine and azepine derivatives as prokineticin receptor modulators” (TAKEDA PHARMACEUTICAL COMPANY LIMITED, priority 2013, dated 2017)
# Biological target: human PKR1 receptors (Homo sapiens (Human), UniProt Q8TCW9)
# Experiment: PKR1 antagonist assay: block of PK1-mediated intracellular calcium release (FLIPR Tetra)
# Assay type: cell-based
# Settings: RBL2H3 cells expressing human PKR1; stimulation with PK1 at EC80; calcium fluorescence
# Protocol: Prokineticin receptor 1 (PKR1) antagonists may be functionally assessed by measurement of change in intracellular calcium levels induced by Gq mediated increase in inositol triphosphate (IP3) levels. The ability of a compound to block the intracellular release of calcium mediated by PK1 in RBL2H3 cells expressing human PKR1 receptors is determined as a measure of the compound's antagonist activity in vitro.
# Approximately 10,000 cells per assay well are seeded in normal culture medium in a 384 well plate (Corning). Twenty-four hours after seeding, the cells are loaded with a calcium sensitive fluorescent dye by replacing the culture medium with assay buffer (1× Hanks buffered saline, 25 mM HEPES, 0.1% w/v fatty acid free BSA (bovine serum albumin), pH 7.4) containing 1 mM probenecid and 1× Calcium 5 Reagent (Molecular Devices). Cells are incubated at 37° C. for 1 hour to allow for dye uptake.
# To test for antagonist activity, test compounds at a final concentration range between 0.32 nM-10 μM (diluted in assay buffer) are added to the assay wells and allowed to incubate for 10 minutes prior to stimulation with PK1. After incubation with test compounds the assay plate is placed in a FLIPR Tetra (Molecular Devices) and PK1 (diluted in assay buffer) is added at the determined EC80 concentration (final). Ligand-dependent changes in intracellular calcium levels are determined by measuring changes in fluorescence of the dye at […] following excitation at 485 nm.
# human PKR1 receptors, sequence (Q8TCW9 whole entry): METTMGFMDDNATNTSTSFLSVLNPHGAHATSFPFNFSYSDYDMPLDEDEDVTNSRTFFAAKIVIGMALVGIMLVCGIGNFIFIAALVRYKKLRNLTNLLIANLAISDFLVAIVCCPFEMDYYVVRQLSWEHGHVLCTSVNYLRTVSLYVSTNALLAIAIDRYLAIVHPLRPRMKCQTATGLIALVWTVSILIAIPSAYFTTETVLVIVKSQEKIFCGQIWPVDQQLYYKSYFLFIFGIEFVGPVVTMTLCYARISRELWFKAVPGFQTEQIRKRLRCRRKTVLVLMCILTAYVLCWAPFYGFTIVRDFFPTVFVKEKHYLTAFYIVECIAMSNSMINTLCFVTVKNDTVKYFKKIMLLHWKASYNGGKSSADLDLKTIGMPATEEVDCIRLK
row,Compound,IC50 [nM]
1,"CNc1cc(C(=O)N2CCCC(c3ccc(Cl)cc3C)C2)cnn1 (centres unmarked) [Example 71, 5-{[3-(4-Chloro-2-methylphenyl)piperidin-1-yl]carbonyl}-N-methylpyridazin-3-amine]",70
2,"CNc1cc(C(=O)N2CCC[C@H](c3ccc(Cl)cc3C)C2)cnn1 [Example 72, 5-{[(3R)-3-(4-Chloro-2-methylphenyl)piperidin-1-yl]carbonyl}-N-methylpyridazin-3-amine]",30
3,"COc1cc(C(=O)N2CCCC(c3ccc(Cl)cc3C)C2)cnn1 (centres unmarked) [Example 74, 5-{[3-(4-Chloro-2-methylphenyl)piperidin-1-yl]carbonyl}-3-methoxypyridazine]",350
4,"CN(C)c1cc(C(=O)N2CCCC(c3ccc(Cl)cc3C(F)(F)F)C2)cnn1 (centres unmarked) [Example 75, 5-({3-[4-Chloro-2-(trifluoromethyl)phenyl]piperidin-1-yl}carbonyl)-N,N-dimethylpyridazin-3-amine]",110
5,"CNc1cc(C(=O)N2CCCC(c3ccc(Cl)cc3C(F)(F)F)C2)cnn1 (centres unmarked) [Example 76, 5-({3-[4-Chloro-2-(trifluoromethyl)phenyl]piperidin-1-yl}carbonyl)-N-methylpyridazin-3-amine]",80
6,"O=C(c1cnnc(N2CCC2)c1)N1CCCC(c2ccc(Cl)cc2C(F)(F)F)C1 (centres unmarked) [Example 77, 3-(Azetidin-1-yl)-5-({3-[4-chloro-2-(trifluoromethyl)phenyl]piperidin-1-yl}carbonyl)pyridazine]",730
7,"CNc1cc(C(=O)N2CCCC(c3ccc(C(F)(F)F)cc3OC)C2)cnn1 (centres unmarked) [Example 78, 5-({3-[2-Methoxy-4-(trifluoromethyl)phenyl]piperidin-1-yl}carbonyl)-N-methylpyridazin-3-amine]",3000
8,"CNc1cc(C(=O)N2CCCC(c3ccc(OC)cc3C)C2)cnn1 (centres unmarked) [Example 79, 5-{[3-(4-Methoxy-2-methylphenyl)piperidin-1-yl]carbonyl}-N-methylpyridazin-3-amine]",130
9,"COc1ccc(C2CCCN(C(=O)c3cnnc(N(C)C)c3)C2)c(C)c1 (centres unmarked) [Example 80, 5-{[3-(4-Methoxy-2-methylphenyl)piperidin-1-yl]carbonyl}-N,N-dimethylpyridazin-3-amine]",160
10,"CNc1cc(C(=O)N2CCCC(c3ccc(OC)cc3C(F)(F)F)C2)cnn1 (centres unmarked) [Example 81, 5-({3-[4-Methoxy-2-(trifluoromethyl)phenyl]piperidin-1-yl}carbonyl)-N-methylpyridazin-3-amine]",130
11,"COc1ccc(C2CCCN(C(=O)c3cnnc(N(C)C)c3)C2)c(C(F)(F)F)c1 (centres unmarked) [Example 82, 5-({3-[4-Methoxy-2-(trifluoromethyl)phenyl]piperidin-1-yl}carbonyl)-N,N-dimethylpyridazin-3-amine]",210
12,"CCOc1cc(Cl)ccc1C1CCCN(C(=O)c2cnnc(NC)c2)C1 (centres unmarked) [Example 83, 5-{[3-(4-Chloro-2-ethoxyphenyl)piperidin-1-yl]carbonyl}-N-methylpyridazin-3-amine]",170
13,"CCOc1cc(Cl)ccc1C1CCCN(C(=O)c2cnnc(N(C)C)c2)C1 (centres unmarked) [Example 84, 5-{[3-(4-Chloro-2-ethoxyphenyl)piperidin-1-yl]carbonyl}-N,N-dimethylpyridazin-3-amine]",90
14,"Cc1cc(C(=O)N2CCCC(c3ccc(Cl)cc3C)C2)cnn1 (centres unmarked) [Example 85, 5-{[3-(4-Chloro-2-methylphenyl)piperidin-1-yl]carbonyl}-3-methylpyridazine]",1140
15,"Cc1cc(Cl)ccc1C1CCCN(C(=O)c2cn(C)nc2C)C1 (centres unmarked) [Example 87, 3-(4-Chloro-2-methylphenyl)-1-[(1,3-dimethyl-1H-pyrazol-4-yl)carbonyl]piperidine]",200
16,"Cc1nn(C)cc1C(=O)N1CCCC(c2ccc(Cl)cc2)C1 (centres unmarked) [Example 88, 3-(4-Chlorophenyl)-1-[(1,3-dimethyl-1H-pyrazol-4-yl)carbonyl]piperidine]",1820
17,"Cn1cc(C(=O)N2CCCC(c3ccc(Cl)cc3)C2)cn1 (centres unmarked) [Example 89, 3-(4-Chlorophenyl)-1-[(1-methyl-1H-pyrazol-4-yl)carbonyl]piperidine]",1280
